Test results taken from patent US9464283B2, “Signaling compositions, methods, and systems for effecting plant growth and crop enhancement” (KamTec, LLC, priority 2013, dated 2016).
“And” between values parts separate entries of the source, which are not always exact repeats. Equal values may be shown once.

Tests used:
[1] = tested on: 'M-202' medium-grain rice (Oryza sativa L.); assay: Rice seed soak with NaCl irrigation (salt tolerance); format: in vivo; details: 5 ppm, 1500 ppm NaCl irrigation, planting through completion of study
Procedure: In another preferred embodiment of the present invention, seeds are soaked in prepared bio-regulator solutions for a period of three hours. Rice seeds were selected from ‘M-202’ medium-grain rice (Oryza sativa L.), (Reg. no 72) PI494105 type grains; this selection was meant to represent a typical California rice seed, and was not meant to be limiting. The bio-regulator solutions are prepared using 5 ppm BMTA solution with 0.05% v/v Kinetic® made by Helena Chemical Company. The solution was drained and the seeds planted in starter plastic containers with potting soil. After germination and having grown to 4 inches in height, the plants were transplanted into 6 inch diameter plastic containers. Two sets of three pots each were set up for this study; one set for the test group and one set for the control group. Both the control and test studies were irrigated with 1500 ppm NaCl solution from time of planting until the study was completed. The purpose of the NaCl irrigation was to determine the effect of the bio-regulator treatment in regards to salt tolerances.

Melody variety sunflower = assay: Sunflower seed soak, field plots; format: in vivo; details: per Rep; 3 ppm, three hours seed soak
Description: In this preferred embodiment of the present invention, sunflower seeds were selected from the Melody variety and were soaked for three hours in solutions containing 0.05% Tween 20 and BMTA or BMPA, at a concentration of 3 ppm. Another group of seeds of the same variety was soaked in a solution with only in 0.05% Tween 20 added (control). Following soaking, seeds were desiccated to storage moisture contents and BMTA, BMPA and control seeds were sown in three twenty-five foot plots (Reps) each on May 21 (plots were arranged in a randomized block design). On September 16, sunflower heads were harvested, with a harvest of around 20 heads per plot/Rep on average. The heads were hand-threshed to collect seeds. Moisture, count, and weight data was collected on seeds from each head.

'M-202' rice = assay: Rice seed soak 24 hours, tap water irrigation; format: in vivo, Oryza sativa L.; details: 5 ppm, 24 hours soak
Procedure: In this preferred embodiment of the present invention, seeds are soaked in prepared bio-regulator solutions for a period of 24 hours. Rice seeds were selected from the same ‘M-202’ type grains as in the previous study. The bio-regulator solutions were prepared using 5 ppm BMPA solution. The solution was drained and seeds planted in starter plastic containers filled with potting soil. After germination and plant growth reaching height of four inches, rice seedlings were transplanted from their greenhouse containers to six-inch diameter plastic containers and placed outdoor. Again, two sets of three pots for the control and test group were used. These studies were also carried out using an increased amount of BMPA. The amount was increased from 1 ppm to 5 ppm, and the results of the study were similar to the results outlined in the paragraph above.

[2] = tested on: aphid infestation on cotton Bt plant; assay: Aphid infestation of cotton Bt plants after seed soak; format: in vivo; details: 5 ppm BMPA seed soak
Procedure: In this preferred embodiment of the present invention, seeds were soaked for a period of 3 hours in the bio-regulator solution. Cotton Bt were selected and studied to determine if bio-regulator chemistry will enhance or influence the inserted Bt genes of the transgenic plant. The seeds were separated into two different sets on July 2. The first set, Set 1, was soaked in 5 ppm BMPA solution with 0.05% Kinetic®. The second set, Set 2, was soaked in water with 0.05% v/v Kinetic®. The solution was drained and the treated seeds planted in starter plastic trays. After germination and after the seedlings reached the height of four inches, the cotton Bt plants were transplanted into larger six-inch plastic containers. The cotton plants were placed outdoors for the duration of the study. The different sets of plants were regularly observed throughout this study.

SMILES | observed growth of rice plant [1] | % Moist (Melody variety sunflower) | observed growth of rice plant ('M-202' rice) | delay of the infestation of aphids [2] [days]
Cc1ccc(C(=O)OCCN(C)Cc2ccccc2)cc1 [BMTA] | enhanced growth | 13.10% and 13.01% and 14.82% | – | –
CN(CCOC(=O)COc1ccccc1)Cc1ccccc1 [BMPA] | – | 13.52% and 13.93% and 12.37% | enhanced growth | ≤ 19
